Like-named read-outs stand apart in the source and are kept apart here.
Legend:
[1] = Stability of the amorphous form by visual inspection after storage; type: physicochemical
Procedure: The stability of the amorphous form was evaluated by visual inspection of a sample of the amorphous form prepared above after being stored at about 0-5° C. for about 8 months.

[2] = tested on: HL-60 promyelocytic leukemia cells; details: in vitro; cited from earlier work
[3] = in vitro; cited from earlier work
[4] = in vivo; cited from earlier work
[5] = tested on: hematopoietic progenitor cells; details: normal human peripheral blood; cited from earlier work
[6] = tested on: white blood cell production; details: cited from earlier work
[7] = ezatiostat hydrochloride in a liposomal injectable formulation, MDS patients; cited from earlier work

**Q.** Which “visual inspection (color, texture, flowability, crystal formation)” value ([1]; stored at about 0-5° C. for about 8 months) does the source give for `CCOC(=O)[C@@H](N)CCC(=O)N[C@@H](CSCc1ccccc1)C(=O)N[C@@H](C(=O)OCC)c1ccccc1.Cl` [amorphous form, ezatiostat hydrochloride] here?
**A.** The value was “No change with respect to color, texture and flowability of the sample and no crystal formation was observed”.

**Q.** And the “time for which the amorphous form is stable” value ([1]; under 0-5° C.)?
**A.** The value was “at least 8 months”.

**Q.** For `CCOC(=O)[C@@H](N)CCC(=O)N[C@@H](CSCc1ccccc1)C(=O)N[C@@H](C(=O)OCC)c1ccccc1` [Ezatiostat], which “differentiation of HL-60 promyelocytic leukemia cells” value [2] is on record?
**A.** Its value is “induce the differentiation”.

**Q.** What about the “potentiation of the activity of cytotoxic agents” value [3] of the same molecule?
**A.** Its value is “potentiate the activity of cytotoxic agents”.

**Q.** What about the “potentiation of the activity of cytotoxic agents” value [4] of the same molecule?
**A.** The value was “potentiate the activity of cytotoxic agents”.

**Q.** What about the “colony formation of hematopoietic progenitor cells” value [5] of the same molecule?
**A.** Its value is “stimulate colony formation of all three lineages”.

**Q.** And the “white blood cell production” value ([6]; animals in which white blood cells were depleted by treatment with cisplatin or fluorouracil)?
**A.** Its value is “increase white blood cell production”.

**Q.** And the “white blood cell production” value ([6]; normal animals)?
**A.** Its value is “increase white blood cell production”.

**Q.** What about the hematologic improvement [7] of the same molecule?
**A.** The hematologic improvement was “multi-lineage hematologic improvement”.

**Q.** What about the tolerability [7] of the same molecule?
**A.** The tolerability was “well tolerated”.

Source: US20140315812A1, “AMORPHOUS EZATIOSTAT ANSOLVATE” (Telik, Inc., priority 2011, published 2014)
